Assays:
[1] = Antioxidant capacity, radical scavenging ability by DPPH (Blois method); settings: absorbance at 517 nm
Protocol: The antioxidant capacity of the novel compounds was measured by using a Blois method of measuring radical scavenging ability by DPPH which was widely known. A solution of DPPH by concentration was prepared in ethanol, and the initial absorbance was measured at 517 nm, and the absorbance over time was measured by adding a solution of the novel compound and the DPPH solution. The antioxidant capacity was expressed in % and an IC50 value was obtained using a calculation program.

mushroom tyrosinase = test: Inhibitory effect on tyrosinase; format: biochemical; settings: L-tyrosine substrate, pH 6.5, 37° C., 30 minutes; read-out: Inhibition of tyrosinase
Protocol: The inhibitory effect on tyrosinase related to skin whitening and melanin formation was measured using the following experimental method. 10 μL of each sample solution at a different concentration and 20 μL of mushroom tyrosinase in a phosphate buffer (pH 6.5) were added to a 96-well microplate and added with 170 μL of a mixed solution in which a 1 mM L-tyrosine solution, a 50 mM potassium phosphate buffer (pH 6.5) and distilled water were contained in a ratio of 10:10:9. Samples dissolved in DMSO were diluted 30 times with distilled water and used. After incubation at 37° C. for 30 minutes, the absorbance of the reaction solution was measured at 490 nm using a GENios microplate reader (Tecan Austria GmbH, Austria). The inhibition degree of tyrosinase by the addition of the sample was expressed as a 50% inhibition rate (IC50).

[2] = test system: cortex culture containing neurons and glia; test: Brain cell protection in apoptosis induced by oxygen-glucose deprivation (OGD)/reoxygenation, LDH release; format: cell-based, rat; settings: for protective effect on brain cells (apoptosis, % LDH release): OGD then 24 hours normoxic, 6 concentrations, FIG. 1
Protocol: A […] cortex culture medium containing neurons and glia was obtained from fetal rats during the gestation period of 17 to 18 days. That is, an embryonic tissue was extracted from a pregnant Sprague-Dawley and transferred to a Hanks Balanced Salt solution (Gibco) cooled with ice. The cortical brain tissue was sterile and thinly dissected and stored in cold HBSS before digestion with 0.0125% trypsin. The isolated cells were placed in a 96 well plate coated with poly-L-lysine (1 mg/ml, Sigma-Aldrich) in a Dulbecco's modified eagle medium (Gibco) containing 10% iron-supplemented fetal calf serum (Hyclone) and 1% antibiotic/antimycotic (Gibco) at 37° C. at a seeding density of 50,000 cells/well. Then, after attaching the culture medium overnight in a 37° C. incubator containing 5% CO2 and atmospheric oxygen, at the next day, the medium was replaced with a warm Neurobasal A medium (Gibco) containing 0.5 mmol/L of L-glutamine (Gibco) and supplemented with 1% B27, N2 and antibiotics/antimycotic (Gibco). In the culture for 14 to 16 days, half of the medium was changed every 4 days. After 14 days of cell culture, the culture medium was replaced with a vehicle (0.1% DMSO or EtOH) or an oxygen-free-glucose Neurobasal A containing an experimental substance (RA1, naringenin or lipoic acid) at 6 concentrations. After oxygen-glucose deprivation (OGD), the same volume of Neurobasal A with the same novel substance concentration was added and transferred to a normoxic condition (5% CO2 and atmospheric oxygen) state for 24 hours. Cellular activity was evaluated by measuring LDH release of damaged cells. The effects of lipoic acid, naringenin, and the novel substance RA1 on apoptosis (% LDH release) following ischemia/reoxygenation-reperfusion (I/R) were performed in the in vitro cell culture.

[3] = test system: cortex culture containing neurons and glia; test: Total antioxidant capacity assay after OGD and I/R (Antioxidant Assay Kit); format: cell-based, rat; settings: FIG. 2
Protocol: Several groups of plates were subjected to the OGD (oxygen-glucose deprivation) and I/R (ischemia-reperfusion), and the total antioxidant capacity was measured using a general commercial instrument (Antioxidant Assay Kit, Sigma-Aldrich). The average value of the three experiments was obtained and the antioxidant capacity was expressed in […].

cerebral infarction site = test: Transient middle cerebral artery occlusion (t-MCAO), administration immediately before artery occlusion; format: in vivo, Sprague-Dawley rats; settings: for size of the cerebral infarction site compared to the vehicle: 30 min occlusion, 5 h 30 min reperfusion, FIG. 3(A); for size of the cerebral infarction site, dependence on concentration: FIG. 3(B) and (C)
Protocol: As a research model for cerebral infarction, transient middle cerebral artery occlusion (t-MCAO) in animals (rats) was used to examine the infarct size of the cerebral infarction site and the degree of its protective action. First, in an animal model in which the middle cerebral artery of Sprague-Dawley rats (300 to 350 g; Charles River, Montreal, PQ, CAN) was closed for 30 minutes to create a cerebral infarction and then reperfused for 5 hours and 30 minutes (t-MCAO), naringenin and RA1 (VANL-100) were administered immediately before artery occlusion and compared with a case of administration of a vehicle.

Row | SMILES | IC50 (mushroom tyrosinase) [µM] | Antioxidant capacity (%) [1] [%] | further results
1 | O=C(CCCCC1CCSS1)OCCOc1cc(O)c2c(c1)OC(c1ccc(O)cc1)CC2=O (stereo not shown) [RA4, 2-((5-hydroxy-2-(4-hydroxyphenyl)-4-oxochroman-7-yl)oxy)ethyl 5-(1,2-dithiolan-3-yl)pentanoate] | 260 | 22 | –
2 | O=c1cc(CO)occ1O [Kojic acid, reference compound] | – | 28 | –
3 | O=C(O)CCCC[C@@H]1CCSS1 (racemic) [Lipoic acid] | 44 | 66.8 | protective effect on brain cells (apoptosis, % LDH release) [2]: hardly showed a protective effect; total antioxidant capacity ([3]; 0.25 and 25 ummol/L): no antioxidant effect; total antioxidant capacity ([3]; high concentrations of 125 and 1250 ummol/L): great antioxidant capacity
4 | O=C1C[C@@H](c2ccc(O)cc2)Oc2cc(O)cc(O)c21 [Naringenin] | 82 | 58.5 | protective effect on brain cells (apoptosis, % LDH release) [2]: slight effect at one concentration; size of the cerebral infarction site compared to the vehicle (cerebral infarction site): significantly reduced; size of the cerebral infarction site, dependence on concentration (cerebral infarction site): reduced the size of the cerebral infarction site depending on a concentration
5 | OC[C@H]1O[C@@H](Oc2ccc(O)cc2)[C@H](O)[C@@H](O)[C@@H]1O [Arbutin, reference compound] | 266 | 36 | –

Second part, led by results:

Row | IC50 (mushroom tyrosinase) [µM] | SMILES | Antioxidant capacity (%) [1] [%] | further results
6 | 133 | O=C(CCCCC1CCSS1)Oc1ccc(C2CC(=O)c3c(O)cc(OC(=O)CCCCC4CCSS4)cc3O2)cc1 (stereo not shown) [RA3, 4-(7-((5-(1,2-dithiolan-3-yl)pentanoyl)oxy)-5-hydroxy-4-oxochroman-2-yl)phenyl 5-(1,2-dithiolan-3-yl)pentanoate] | 12.4 | –
7 | > 350 | O=C(CCCCC1CCSS1)OCCOCCOCCOCCOCCOc1cc(O)c2c(c1)OC(c1ccc(O)cc1)CC2=O (stereo not shown) [RA8, 14-((5-hydroxy-2-(4-hydroxyphenyl)-4-oxochroman-7-yl)oxy)-3,6,9,12-tetraoxatetradecyl 5-(1,2-dithiolan-3-yl)pentanoate] | 11.5 | –
8 | > 350 | O=C(CCCCC1CCSS1)OCCOCCOCCOCCOc1cc(O)c2c(c1)OC(c1ccc(O)cc1)CC2=O (stereo not shown) [RA7, 2-(2-(2-(2-((5-hydroxy-2-(4-hydroxyphenyl)-4-oxochroman-7-yl)oxy)ethoxy)ethoxy)ethoxy)ethyl 5-(1,2-dithiolan-3-yl)pentanoate] | – | –
9 | > 350 | O=C(CCCCC1CCSS1)OCCOCCOCCOCCOCCOCCOc1cc(O)c2c(c1)OC(c1ccc(O)cc1)CC2=O (stereo not shown) [RA9, 17-((5-hydroxy-2-(4-hydroxyphenyl)-4-oxochroman-7-yl)oxy)-3,6,9,12,15-pentaoxaheptadecyl 5-(1,2-dithiolan-3-yl)pentanoate] | 24 | –
10 | 225 | O=C(CCCCC1CCSS1)OCCOCCOc1cc(O)c2c(c1)OC(c1ccc(O)cc1)CC2=O (stereo not shown) [RA5, 2-(2-((5-hydroxy-2-(4-hydroxyphenyl)-4-oxochroman-7-yl)oxy)ethoxy) ethyl 5-(1,2-dithiolan-3-yl)pentanoate] | 28.5 | –
11 | 350 | O=C(CCCCC1CCSS1)OCCOCCOCCOc1cc(O)c2c(c1)OC(c1ccc(O)cc1)CC2=O (stereo not shown) [RA6, 2-(2-(2-((5-hydroxy-2-(4-hydroxyphenyl)-4-oxochroman-7-yl)oxy)ethoxy)ethoxy)ethyl 5-(1,2-dithiolan-3-yl)pentanoate] | 14.6 | –
12 | 32 | O=C(CCCCC1CCSS1)Oc1cc(O)c2c(c1)OC(c1ccc(O)cc1)CC2=O (stereo not shown) [RA1, 5-hydroxy-2-(4-hydroxyphenyl)-4-oxochroman-7-yl 5-(1,2-dithiolan-3-yl)pentanoate] | – | strength of protective effect on brain cells at a very low concentration ([2]; FIG. 1D, comparison with lipoic acid and naringenin): about 100 times; protective effect on brain cells (apoptosis, % LDH release) [2]: very strong protective effect; total antioxidant capacity ([3]; 2.5 to 1250 ummol/L): strong protective effect; size of the cerebral infarction site compared to the vehicle (cerebral infarction site): significantly reduced; size of the cerebral infarction site, dependence on concentration (cerebral infarction site): reduced the size of the cerebral infarction site depending on a concentration; effective concentration, times lower than naringenin (10 mg/kg) (cerebral infarction site; RA1 1×10^−3 mg/kg against naringenin 10 mg/kg): 10,000 times; size of the cerebral infarction site (cerebral infarction site; RA1 at 1×10^−3 mg/kg): strongly reduced; protective effect on brain cells, times stronger than naringenin or lipoic acid (cerebral infarction site; animal brain infarction model, very low concentration): ~10,000 times
13 | 58 | O=C(CCCCC1CCSS1)Oc1ccc(C2CC(=O)c3c(O)cc(O)cc3O2)cc1 (stereo not shown) [RA2, 4-(5,7-dihydroxy-4-oxochroman-2-yl)phenyl 5-(1,2-dithiolan-3-yl)pentanoate] | 77 | –
